For this test, the system named is Pyricularia oryzae. It counts as in vivo. As to conditions: individual active compound, protective, inoculated next day, rated after 6 days.

Structures are written as SMILES. Like-named read-outs stand apart in the source and are kept apart here.

For the compound `CC1CCN(c2c(-c3c(F)cc(F)cc3F)c(Cl)nc3ncnn23)CC1` [II, 5-chloro-7-(4-methylpiperidin-1-yl)-6-(2,4,6-trifluorophenyl)-[1,2,4]triazolo[1,5-a]pyrimidine], the “Efficacy in % of the untreated control” value was 3 % of the untreated control (1 ppm in the spray liquor) and 52 % of the untreated control (4 ppm in the spray liquor).

Turning to `CNC(=O)/C(=N/OC)c1ccccc1CO/N=C(C)/C(=N/OC)C(/C)=N/OC` [I (orysastrobin), 2-[2-(2,3-bismethoxyimino-1-methylbutylideneamino-oxymethyl)phenyl]-2-methoxyimino-N-methylacetamide], the “Efficacy in % of the untreated control” value runs as follows: (0.25 ppm in the spray liquor) 0 % of the untreated control; (4 ppm in the spray liquor) 28 % of the untreated control.

In the case of `CC1CCN(c2c(-c3c(F)cccc3Cl)c(Cl)nc3ncnn23)CC1` [A], the “Efficacy in % of the untreated control” value was 0 % of the untreated control (1 ppm in the spray liquor) and 28 % of the untreated control (4 ppm in the spray liquor).

Consider `C[C@H](Nc1c(-c2c(F)cc(F)cc2F)c(Cl)nc2ncnn12)C(F)(F)F` [B], for which the “Efficacy in % of the untreated control” value is 28 % of the untreated control (1 ppm in the spray liquor) and 52 % of the untreated control (4 ppm in the spray liquor).

The record behind these values is patent US20060063786A1 (priority 2002, published 2006).
